{"source": "ChEMBL document CHEMBL1155316", "about": "“Benzo[d]imidazole inhibitors of Coactivator Associated Arginine Methyltransferase 1 (CARM1)--Hit to Lead studies” (Bioorg Med Chem Lett, 2009)", "key": {"[1]": {"target": "T1, Histone-arginine methyltransferase CARM1 (Homo sapiens, UniProt Q86X55)", "T1 sequence (Q86X55 whole entry)": "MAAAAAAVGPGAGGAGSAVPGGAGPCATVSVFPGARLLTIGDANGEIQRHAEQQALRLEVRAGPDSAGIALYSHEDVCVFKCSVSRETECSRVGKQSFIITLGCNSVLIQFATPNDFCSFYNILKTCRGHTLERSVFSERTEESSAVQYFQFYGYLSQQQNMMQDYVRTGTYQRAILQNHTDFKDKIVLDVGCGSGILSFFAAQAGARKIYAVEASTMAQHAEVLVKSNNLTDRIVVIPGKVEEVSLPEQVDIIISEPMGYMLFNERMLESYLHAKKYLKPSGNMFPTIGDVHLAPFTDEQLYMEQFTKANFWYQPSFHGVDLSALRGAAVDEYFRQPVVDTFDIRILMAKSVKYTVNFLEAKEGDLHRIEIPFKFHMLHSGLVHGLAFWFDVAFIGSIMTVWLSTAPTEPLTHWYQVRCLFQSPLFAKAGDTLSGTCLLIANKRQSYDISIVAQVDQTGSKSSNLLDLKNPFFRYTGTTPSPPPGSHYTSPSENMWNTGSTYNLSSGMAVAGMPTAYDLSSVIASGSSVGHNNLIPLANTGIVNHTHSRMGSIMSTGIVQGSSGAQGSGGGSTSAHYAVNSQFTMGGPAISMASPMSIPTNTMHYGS", "experiment": "Inhibition of human CARM1 assessed as inhibition of histone3 methylation"}, "[2]": {"target": "T2, Histone-arginine methyltransferase CARM1 (Homo sapiens) (UniProt Q86X55)", "T2 sequence (whole entry)": "T1 sequence (Q86X55 whole entry)", "experiment": "Inhibition of human CARM1 assessed as inhibition of HuR methylation"}, "[3]": {"target": "T2, Histone-arginine methyltransferase CARM1 (Homo sapiens)", "experiment": "Inhibition of human CARM1 assessed as inhibition of PABP methylation"}, "[4]": {"target": "Protein arginine N-methyltransferase 1 (Homo sapiens, UniProt Q99873)", "sequence (Q99873 whole entry)": "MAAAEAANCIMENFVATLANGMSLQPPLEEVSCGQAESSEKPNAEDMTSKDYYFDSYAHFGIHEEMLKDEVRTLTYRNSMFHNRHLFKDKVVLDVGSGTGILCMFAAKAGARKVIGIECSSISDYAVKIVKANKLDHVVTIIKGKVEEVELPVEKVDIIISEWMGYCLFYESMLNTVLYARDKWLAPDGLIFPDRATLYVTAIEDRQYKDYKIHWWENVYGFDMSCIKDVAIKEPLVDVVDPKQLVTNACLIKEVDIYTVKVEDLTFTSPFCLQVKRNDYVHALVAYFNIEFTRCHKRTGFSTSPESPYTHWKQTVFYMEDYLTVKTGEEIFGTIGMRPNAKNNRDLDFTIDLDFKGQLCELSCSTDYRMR", "experiment": "Inhibition of PRMT1"}, "[5]": {"target": "Protein arginine N-methyltransferase 3 (Homo sapiens, UniProt O60678)", "sequence (O60678 whole entry)": "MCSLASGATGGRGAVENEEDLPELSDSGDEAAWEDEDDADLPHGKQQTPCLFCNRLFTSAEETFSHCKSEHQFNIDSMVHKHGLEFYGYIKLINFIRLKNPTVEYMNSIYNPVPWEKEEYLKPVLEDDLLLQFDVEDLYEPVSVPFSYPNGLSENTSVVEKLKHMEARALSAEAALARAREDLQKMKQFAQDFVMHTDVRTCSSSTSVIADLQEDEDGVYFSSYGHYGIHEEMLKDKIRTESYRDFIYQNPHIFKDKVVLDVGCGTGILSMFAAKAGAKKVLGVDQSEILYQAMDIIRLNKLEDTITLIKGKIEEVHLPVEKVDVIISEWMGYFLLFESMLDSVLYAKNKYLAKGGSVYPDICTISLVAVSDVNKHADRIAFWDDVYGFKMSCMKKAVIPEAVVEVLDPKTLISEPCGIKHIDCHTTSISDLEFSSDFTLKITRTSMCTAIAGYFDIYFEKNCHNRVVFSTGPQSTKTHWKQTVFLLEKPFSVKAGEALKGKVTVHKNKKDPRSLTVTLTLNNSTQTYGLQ", "experiment": "Inhibition of PRMT3"}}, "note": "Activity calls are given as the source filed them. The rule behind the calls is not given here."}
{"smiles": "CN[C@H](C)CN1CCC(c2cc(C)c3nc(-c4cccnc4OC)[nH]c3c2)CC1", "values": [{"measurement": "IC50", "setting": "[1]", "value": "> 30", "unit": "µM"}]}
{"smiles": "C[C@H](N)C(=O)NCc1cccc(-n2nc(C(F)(F)F)cc2-c2nnc(-c3cccc4ncsc34)o2)c1", "values": [{"measurement": "IC50", "setting": "[1]", "value": 0.04, "unit": "µM"}]}
{"smiles": "CNCCN1CCC(c2cc(C)c3[nH]c(-c4c(OC)cccc4OC)nc3c2)CC1", "values": [{"measurement": "Activity", "setting": "[2]", "value": "Active"}, {"measurement": "Activity", "setting": "[3]", "value": "Active"}]}
{"smiles": "CN[C@@H](C)CN1CCC(c2cc(C)c3nc(-c4cccnc4OC)[nH]c3c2)CC1", "values": [{"measurement": "IC50", "setting": "[1]", "value": "> 30", "unit": "µM"}]}
{"smiles": "CNCCN1CCC(c2cc(C)c3nc(-c4c(OC)cccc4OC)[nH]c3c2)CC1", "values": [{"measurement": "IC50", "setting": "[4]", "value": "> 25", "unit": "µM"}, {"measurement": "IC50", "setting": "[5]", "value": "> 25", "unit": "µM"}]}
